“Also recorded” adds a separate entry of the source.
Key:
[1] = system: dTHP−1 cells; experiment: Cell viability of dTHP-1 cells with or without LPS; type: cell-based, human; details: in % (unit assumed)
Experimental: The HEK-293 (ATCC Cat# CRL-1573, RRID:CVCL_0045) and human monocytic THP−1 cells (ATCC Cat# TIB-202, RRID:CVCL_0006) were, respectively, cultured in DMEM and RPMI 1640 media supplemented with 10% fetal bovine serum, 2 mM L-glutamine, and 1× Antibiotic-Antimycotic at 37 °C in a humidified incubator with 5% CO2. THP−1 cells were differentiated by 100 nM phorbol-12-myristate-13-acetate (PMA) for 4 h and then rested for 44 h as dTHP−1 cells.
(§1) Cells were incubated with the WST-1 reagent (Thermo Fisher Scientific, Waltham, MA, USA) at 37 °C for 2 h. The cell viability was determined by spectrophotometer at 450 nm.
The dTHP−1 cells were treated with indicated compounds for 3 h and then activated with or without 100 ng/mL lipopolysaccharide (LPS; E. coli 0111:B4) for another 24 h. The levels of human IL-6 and TNFα in supernatants were measured by DuoSet® ELISA Development System (R&D systems, Minneapolis, MN, USA) according to the manufacturer’s protocol.

[2] = system: protein kinases known to regulate the NF-κB pathway; experiment: Kinase screening panel as a whole; type: biochemical; details: Table S1
Text: While the EGFR kinase inhibitory activity was largely abolished here, it could not be excluded that our modifications may have generated affinity to another kinase. The most important kinases to be checked were those reported to phosphorylate p65-Ser468 in different cell types, comprising GSK3β, IKKβ, and IKKɛ [45, 46, 47]. In addition, all the kinases described in the literature to control the canonical and non-canonical pathway of NF-κB activation were also included in the screening panel. […] Instead, the inhibitory effect of 19 on the Ser468 phosphorylation might be indirect, e.g., through interference with proteins complexes regulating the Ser468 kinase activity.
(§2) Tabl e S1. Selectivity profiling of compound 19 ag ainst the protein kinases known to regulate the NF-kB pathway ki nase % Inhibiti on at 2 µMa […]
(§3) aScreenings were perf or med as a servi ce at Thermo Fisher Scientific at an ATP concentrat ion of 100 μM. n.i., no inhi biti on. Data represent mean values of duplicat es that differed by less t han 7%.

[3] = target: T1, CHUK (IKK alpha) (Homo sapiens, UniProt O15111); experiment: Kinase selectivity profiling (Thermo Fisher); type: biochemical; details: ATP 100 μM, mean of duplicates
T1 construct: purchased Thermo Fisher Scientific (screening service)
Experimental: as §2, §3

[4] = target: T2, PRKCQ (PKC theta) (Homo sapiens, UniProt Q04759); experiment: Kinase selectivity profiling (Thermo Fisher); type: biochemical; details: ATP 100 μM, n.i. = no inhibition
T2 construct: purchased Thermo Fisher Scientific (screening service)
Experimental: as §2, §3

[5] = target: T3, PRKCI (PKC iota) (Homo sapiens, UniProt P41743); experiment: Kinase selectivity profiling (Thermo Fisher); type: biochemical; details: ATP 100 μM, n.i. = no inhibition
T3 construct: purchased Thermo Fisher Scientific (screening service)
Experimental: as §2, §3

[6] = target: T4, RIPK2 (Homo sapiens, UniProt O43353); experiment: Kinase selectivity profiling (Thermo Fisher); type: biochemical; details: ATP 100 μM, mean of duplicates
T4 construct: purchased Thermo Fisher Scientific (screening service)
Experimental: as §2, §3

[7] = target: T5, IRAK4 (Homo sapiens, UniProt Q9NWZ3); experiment: Kinase selectivity profiling (Thermo Fisher); type: biochemical; details: ATP 100 μM, mean of duplicates
T5 construct: purchased Thermo Fisher Scientific (screening service)
Experimental: as §2, §3

[8] = system: NF-κB; experiment: NF-κB luciferase reporter assay; type: cell-based; details: Homo sapiens, NF-κB-luciferase-transfected HEK293 cells, TNFα 50 ng/mL
Experimental: NF-κB Luciferase Reporter Vector was purchased from Signosis (Santa Clara, CA, USA) and transfected into HEK-293 cells using FuGENE HD (Promega, Fitchburg, MA, USA) following the manufacturer’s protocol. The transfected cells were incubated in serum-free DMEM for 16 h and then treated with DMSO or indicated compounds. After 3 h, cells were treated with or without 50 ng/mL of Recombinant Human TNFα Protein (R&D systems, Minneapolis, MN, USA) for another 3 h. The protein lysates were analyzed using Steady-Glo® Luciferase Assay System (Promega, Fitchburg, MA, USA) and TECAN Infinite 200 pro (Männedorf, Switzerland).

[9] = Cell viability (WST-1), A549; type: cell-based; details: human, A549 cells, mean ± SEM, n = 3
Experimental: as §1

[10] = system: NF-κB p65; experiment: Nuclear translocation of NF-κB p65, immunofluorescent staining; type: cell-based, human; details: 7.5 µM, 3 h, then LPS 0.1 µg/mL 30 min; dTHP-1 cells
Experimental: Cells were fixed with 4% formaldehyde and then incubated with 5% goat serum. The intracellular location of NF-κB p65 was determined using primary antibodies against NF-κB p65 (Cell Signaling Technology, Beverly, MA, USA) and FITC-conjugated secondary antibody. Nuclei were counterstained with Hoechst (1 µg/mL). Images were obtained by fluorescent microscopy (OLYMPUS IX 81; Olympus, Tokyo, Japan).
The dTHP−1 cells were incubated with DMSO (0.1%), 19 (7.5 µM), or CAPE (10 µM) in medium for 3 h and then stimulated with or without LPS (0.1 µg/mL) for another 30 min. (A) Nuclear translocation of NF-κB p65 (green) was determined by immunofluorescent microscopy. Hoechst (blue) was used for nuclei staining. (B) The nuclear NF-κB p65-positive cells were quantified. (C) The levels of phospho-NF-κB p65 (S468), IκB, and GAPDH were determined by Western blot. (D) The normalized phospho-NF-κB p65 (S468) and IκB levels were quantified. All data are expressed as mean ± SEM (n = 3); ** p < 0.01 and *** p < 0.001 compared with the DMSO + LPS group.

T4 sequence (O43353 whole entry): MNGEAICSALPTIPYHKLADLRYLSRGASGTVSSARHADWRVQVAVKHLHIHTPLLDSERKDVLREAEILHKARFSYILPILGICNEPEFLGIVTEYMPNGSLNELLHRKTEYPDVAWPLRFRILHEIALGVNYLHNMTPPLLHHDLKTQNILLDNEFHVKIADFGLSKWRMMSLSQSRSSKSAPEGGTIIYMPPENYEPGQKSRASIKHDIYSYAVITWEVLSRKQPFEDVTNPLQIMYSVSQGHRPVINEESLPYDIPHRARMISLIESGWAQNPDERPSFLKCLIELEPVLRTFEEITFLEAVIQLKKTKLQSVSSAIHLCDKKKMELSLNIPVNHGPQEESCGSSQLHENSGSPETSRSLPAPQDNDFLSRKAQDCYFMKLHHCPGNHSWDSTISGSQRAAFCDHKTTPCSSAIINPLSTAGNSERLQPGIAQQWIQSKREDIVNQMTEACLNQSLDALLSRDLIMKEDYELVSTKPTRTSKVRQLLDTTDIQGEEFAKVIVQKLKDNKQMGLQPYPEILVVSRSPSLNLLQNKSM
T1 sequence (O15111 whole entry): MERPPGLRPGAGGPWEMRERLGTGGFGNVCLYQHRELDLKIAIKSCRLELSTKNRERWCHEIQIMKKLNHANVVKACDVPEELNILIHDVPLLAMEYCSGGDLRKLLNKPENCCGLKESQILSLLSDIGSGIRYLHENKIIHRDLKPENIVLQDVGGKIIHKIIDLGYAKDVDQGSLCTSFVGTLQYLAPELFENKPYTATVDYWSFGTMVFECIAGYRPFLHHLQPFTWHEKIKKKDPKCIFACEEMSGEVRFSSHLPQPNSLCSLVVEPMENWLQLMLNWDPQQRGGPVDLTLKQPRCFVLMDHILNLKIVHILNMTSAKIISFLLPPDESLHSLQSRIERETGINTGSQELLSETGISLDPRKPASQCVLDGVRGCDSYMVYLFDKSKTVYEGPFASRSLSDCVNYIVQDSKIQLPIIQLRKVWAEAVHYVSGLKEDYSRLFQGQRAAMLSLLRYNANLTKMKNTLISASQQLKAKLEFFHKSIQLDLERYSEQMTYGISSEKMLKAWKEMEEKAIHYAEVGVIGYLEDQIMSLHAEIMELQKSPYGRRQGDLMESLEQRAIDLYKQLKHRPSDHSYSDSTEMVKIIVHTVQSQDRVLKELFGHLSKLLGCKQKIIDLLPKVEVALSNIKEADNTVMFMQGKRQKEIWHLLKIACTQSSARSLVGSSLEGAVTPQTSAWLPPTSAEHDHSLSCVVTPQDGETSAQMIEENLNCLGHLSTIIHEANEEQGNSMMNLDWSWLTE
T2 sequence (Q04759 whole entry): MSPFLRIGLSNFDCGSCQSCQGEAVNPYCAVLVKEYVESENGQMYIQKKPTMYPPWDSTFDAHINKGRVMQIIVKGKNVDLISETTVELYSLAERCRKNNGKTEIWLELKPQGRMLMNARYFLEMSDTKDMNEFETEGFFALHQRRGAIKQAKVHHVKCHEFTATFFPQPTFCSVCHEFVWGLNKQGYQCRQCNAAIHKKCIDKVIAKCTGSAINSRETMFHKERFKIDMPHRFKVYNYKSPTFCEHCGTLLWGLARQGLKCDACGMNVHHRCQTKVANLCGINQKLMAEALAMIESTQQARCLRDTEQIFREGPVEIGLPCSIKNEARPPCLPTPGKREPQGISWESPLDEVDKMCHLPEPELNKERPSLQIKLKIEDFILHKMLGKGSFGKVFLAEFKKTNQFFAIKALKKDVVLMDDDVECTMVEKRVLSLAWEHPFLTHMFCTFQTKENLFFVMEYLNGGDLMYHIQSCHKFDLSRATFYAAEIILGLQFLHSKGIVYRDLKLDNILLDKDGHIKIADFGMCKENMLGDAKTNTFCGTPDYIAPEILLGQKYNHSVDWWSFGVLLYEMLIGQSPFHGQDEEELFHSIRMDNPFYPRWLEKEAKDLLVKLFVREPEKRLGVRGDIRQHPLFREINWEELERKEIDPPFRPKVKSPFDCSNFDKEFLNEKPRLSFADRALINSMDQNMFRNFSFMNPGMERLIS
T5 sequence (Q9NWZ3 whole entry): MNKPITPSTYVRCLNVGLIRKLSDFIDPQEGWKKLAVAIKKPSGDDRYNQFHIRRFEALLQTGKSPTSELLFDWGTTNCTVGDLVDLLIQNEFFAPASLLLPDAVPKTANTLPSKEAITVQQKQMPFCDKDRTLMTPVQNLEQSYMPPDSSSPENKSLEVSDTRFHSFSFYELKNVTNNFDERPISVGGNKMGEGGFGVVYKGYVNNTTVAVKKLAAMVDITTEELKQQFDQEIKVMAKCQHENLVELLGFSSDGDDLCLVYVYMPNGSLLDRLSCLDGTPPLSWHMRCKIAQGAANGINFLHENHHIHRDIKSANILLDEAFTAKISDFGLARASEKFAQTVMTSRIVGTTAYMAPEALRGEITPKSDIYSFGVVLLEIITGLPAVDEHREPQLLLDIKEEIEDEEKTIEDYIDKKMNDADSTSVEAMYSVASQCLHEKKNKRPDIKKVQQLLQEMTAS
T3 sequence (P41743 whole entry): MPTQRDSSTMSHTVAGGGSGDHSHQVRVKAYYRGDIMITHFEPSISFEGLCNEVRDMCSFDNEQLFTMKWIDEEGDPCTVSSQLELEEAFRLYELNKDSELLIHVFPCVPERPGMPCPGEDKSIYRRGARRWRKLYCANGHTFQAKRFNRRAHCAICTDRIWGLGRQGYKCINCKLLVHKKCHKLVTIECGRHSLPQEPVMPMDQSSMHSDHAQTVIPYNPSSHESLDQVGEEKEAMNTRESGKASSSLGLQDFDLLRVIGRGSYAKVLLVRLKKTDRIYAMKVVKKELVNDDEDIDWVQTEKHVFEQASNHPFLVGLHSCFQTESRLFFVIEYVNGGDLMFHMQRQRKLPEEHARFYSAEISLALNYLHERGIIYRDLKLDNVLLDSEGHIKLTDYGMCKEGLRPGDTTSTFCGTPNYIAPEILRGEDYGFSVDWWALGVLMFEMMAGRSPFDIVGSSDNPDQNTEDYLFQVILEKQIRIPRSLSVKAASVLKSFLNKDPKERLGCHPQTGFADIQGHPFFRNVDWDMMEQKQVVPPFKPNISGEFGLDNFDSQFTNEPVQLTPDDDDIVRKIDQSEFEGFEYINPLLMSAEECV

inhibition at 2 µM [3]: 6% | % Inhibition at 2 µM, PRKCQ (PKC theta) [4]: n.i. | % Inhibition at 2 µM, PRKCI (PKC iota) [5]: n.i. | inhibition at 2 µM [6]: 29% | inhibition at 2 µM [7]: 5% | IC50 [8]: 2300 nM
Compound: S=C(Nc1ccc2ncnc(Nc3cccc(Cl)c3)c2c1)NC1CCCC1 [Compound 19, 1-(4-((3-Chlorophenyl)amino)quinazolin-6-yl)-3-cyclopentylthiourea]
Cell viability of dTHP-1 cells, 5 μM, LPS ([1]; 5 μM (so in the source), LPS 100 ng/mL for 24 h): 4.9 ± 0.38 | Cell viability of dTHP-1 cells, 5 μM, without LPS ([1]; 5 μM (so in the source), no LPS): 30.0 ± 1.3 | Cell viability of dTHP-1 cells, 7.5 μM, without LPS ([1]; 7.5 μM, no LPS): 60.3 ± 0.85 | Inhibition of kinases involved in NF-κB activation (panel) [2]: did not appreciably inhibit any of these kinases | inhibition at 10 µM ([8]; 10 μM, mean ± SEM, n = 3, read-out: NF-κB Luciferase Activity Inh %): 92.5 ± 0.8% | viability at 10 µM [9]: 99.9 ± 1.6% | LPS-induced nuclear translocation of NF-κB p65 [10]: inhibits the LPS-induced nuclear translocation of NF-κB p65; also recorded: clearly inhibited the nuclear translocation of NF-κB

— article PMC9322122, “Development of (4-Phenylamino)quinazoline Alkylthiourea Derivatives as Novel NF-κB Inhibitors” (Pharmaceuticals, 2022)
